We go through four compounds from patent publication US7393977B2, “Dicarboxylic acid salt of sibutramine” (CJ Cheiljedang Corporation, priority 2005, dated 2008).

One may read the solubility as the dissolved amount per volume that the medium holds. Read a low solubility as little dissolved substance.

Structures can show the parent of a compound that is named as a salt.

One series relates to mouse. Conditions: cited from earlier work.
The subject of the next series is rat. The following applies: cited from earlier work.
A short description of series [1]: Stability to heat (storage at 60° C., residual proportion by HPLC). Type of series: physicochemical. The following applies: for residual proportion of the initial level of active ingredient: 60° C.; for heat stability (in words): compared with sibutramine hydrochloride monohydrate. The method, then:
(§1) The stability of an active ingredient used in a pharmaceutical composition to heat and light is a very important physical property during formulation into tablets and capsules and long-term storage. […] In detail, each compound was stored at 60° C. After 1, 2 and 4 weeks, the residual proportion of the initial level of an active ingredient was measured by high performance liquid chromatography (HPLC). Also, fluorescent light was radiated at 25° C. using a light stability test chamber suitable for the ICH guideline, and after 1, 2 and 4 weeks, the residual proportion of the initial level of an active ingredient was measured by HPLC.

The nature of series [2]: Solubility evaluation in distilled water and at several pH values. Conditions: 37 °C, thermodynamic from solid.
Series [3] is described as follows: Non-hygroscopicity evaluation (water content by Karl-Fisher titrator after exposure to humid air). It is filed as physicochemical. Conditions: for moisture absorption (in words): humid atmosphere of 95% relative humidity. The procedure:
Then, the water content of the samples was measured using a Karl-Fisher titrator. In Table 4, the water content of an active ingredient is expressed as a percentage of water content by weight (weight %).

Series [4] is described as follows: Stability to light (fluorescent light at 25° C., ICH light stability chamber, residual proportion by HPLC). It is filed as physicochemical. The following applies: for residual proportion of the initial level of active ingredient: fluorescent light, 25° C.; for photostability (in words): compared with sibutramine hydrochloride monohydrate. The method, then:
as §1

Where [5] appears, read: 75% relative humidity at 25° C., 3 days.
Where [6] appears, read: 95% relative humidity at 25° C., 1 week.

With `Cl` [HCl, hydrochloric acid], the “LD50 in mouse (i.p.)” value in the series with mouse is recorded as 40 mg/kg. Moreover, in the series with rat, the “LD50 in rat (oral)” value is listed as 900 mg/kg.
As to `CC(C)CC(N(C)C)C1(c2ccc(Cl)cc2)CCC1` (centres unmarked) [Sibutramine HCl monohydrate, Sibutramine hydrochloride monohydrate, reference compound], the “residual proportion of the initial level of active ingredient” value (“residual proportion” below) in series [1] (1 week) is on record as 1.000; in series [1] (2 weeks), 0.999; in series [1] (4 weeks) it was 0.999; in series [1] (Initial), 1.000; in series [4] (1 week), 1.000; in series [4] (2 weeks), 0.999. In addition, the “residual proportion” value in series [4] (4 weeks, hydrochloride monohydrate) is 0.998; in series [4] (Initial), 1.000. The solubility in series [2] (pH 1.2, simulated gastric fluid) is 13.4 mg/mL; in series [2] (pH 4, aqueous buffer), 9.58 mg/mL; in series [2] (pH 5.3, aqueous buffer) it was 6.58 mg/mL; in series [2] (pH 6.8, aqueous buffer), 23.1 mg/mL; in series [2] (pH 7.4, aqueous buffer) it was 9.2 mg/mL; in series [2] (distilled water, water), 26.2 mg/mL. Further, the “water content (weight %)” value in series [3] (75% relative humidity at 25° C., 3 days, hydrochloride monohydrate) worked out at 5.49%; in series [3] (95% relative humidity at 25° C., 1 week, hydrochloride monohydrate), 5.5%; in series [3] (Initial, hydrochloride monohydrate), 5.49%.
For the compound `CC(C)CC(N(C)C)C1(c2ccc(Cl)cc2)CCC1` (centres unmarked) [Sibutramine malonate, sibutramine malonate], the “residual proportion” value in series [1] (1 week) is given as 1.000; in series [1] (2 weeks) it was 0.999; in series [1] (4 weeks), 0.999; in series [1] (Initial), 1.000; in series [4] (1 week), 1.000; in series [4] (2 weeks), 0.999. In addition, the “residual proportion” value is 0.999 in series [4] (4 weeks) and 1.000 in series [4] (Initial). Moreover, the “heat stability (in words)” value in series [1] is reported as “equal to those of sibutramine hydrochloride monohydrate”. The “water content (weight %)” value in series [3] (setting [5]) worked out at 0.02%; in series [3] (setting [6]), 0.03%; in series [3] (Initial) it was 0.03%. For the same compound, the “moisture absorption (in words)” value in series [3] was “did not absorb moisture”. The “photostability (in words)” value in series [4] is “equal to those of sibutramine hydrochloride monohydrate”.
For the compound `CC(C)CC(N(C)C)C1(c2ccc(Cl)cc2)CCC1` (centres unmarked) [Sibutramine oxalate, sibutramine oxalate], the “residual proportion” value in series [1] (1 week) is 1.000; in series [1] (2 weeks) it was 0.999; in series [1] (4 weeks), 0.999; in series [1] (Initial), 1.000; in series [4] (1 week), 1.000; in series [4] (2 weeks), 0.999. The “residual proportion” value was found to be 0.999 in series [4] (4 weeks) and 1.000 in series [4] (Initial). For the same compound, the “heat stability (in words)” value in series [1] is recorded as “equal to those of sibutramine hydrochloride monohydrate”. For the same compound, the “water content (weight %)” value came out at 0.03% in series [3] (setting [5]), 0.02% in series [3] (setting [6]) and 0.02% in series [3] (Initial). Moreover, the “moisture absorption (in words)” value in series [3] was “did not absorb moisture”. In series [4], the “photostability (in words)” value is reported as “equal to those of sibutramine hydrochloride monohydrate”.
